Assay results: PubChem BioAssay AID1919014 (Molecular Pharmacology Branch, DTP, NCI, 2023)
Several values for one entry are separate records, joined by “and”; a condition that tells them apart may be missing. Identical values can stand only once. Values belong to the compound of their own block, whether it stands above or below them.

Tested on: NCI-H1341 complex spheroids, percent test/control
Assay: Anticancer human tumor NCI-H1341 cell line growth inhibition [AhR];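 also: spheroids exposed to agents for seven days before readout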
Settings: for viability, T/C: stronger effect = lower value
Summary of the method: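 Complex tumor spheroids co-cultured with HUVEC and human MSC stroma; AhR antagonists tested in combination with standard-of-care and investigational agents. Top concentration at or near clinical Cmax (else 10 microM), half-log dilutions; growth expressed as percent test/control.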

[1] = curve of first compound, second compound 0.1 µM
[2] = curve of first compound, second compound 0.316 µM
[3] = curve of first compound, second compound 1 µM
[4] = curve of first compound, second compound 3.16 µM
[5] = curve of first compound, second compound 10 µM
[6] = second compound 0.1 µM, first compound 0.0316 µM
[7] = second compound 0.1 µM, first compound 0.1 µM
[8] = second compound 0.1 µM, first compound 0.316 µM
[9] = second compound 0.1 µM, first compound 1 µM
[10] = second compound 0.1 µM, first compound 3.16 µM
[11] = second compound 0.1 µM, first compound 10 µM
[12] = second compound 0.316 µM, first compound 0.0316 µM
[13] = second compound 0.316 µM, first compound 0.1 µM
[14] = second compound 0.316 µM, first compound 0.316 µM
[15] = second compound 0.316 µM, first compound 1 µM
[16] = second compound 0.316 µM, first compound 3.16 µM
[17] = second compound 0.316 µM, first compound 10 µM
[18] = second compound 1 µM, first compound 0.0316 µM
[19] = second compound 1 µM, first compound 0.1 µM
[20] = second compound 1 µM, first compound 0.316 µM
[21] = second compound 1 µM, first compound 1 µM
[22] = second compound 1 µM, first compound 3.16 µM
[23] = second compound 1 µM, first compound 10 µM
[24] = second compound 3.16 µM, first compound 0.0316 µM
[25] = second compound 3.16 µM, first compound 0.1 µM
[26] = second compound 3.16 µM, first compound 0.316 µM
[27] = second compound 3.16 µM, first compound 1 µM
[28] = second compound 3.16 µM, first compound 3.16 µM
[29] = second compound 3.16 µM, first compound 10 µM
[30] = second compound 10 µM, first compound 0.0316 µM
[31] = second compound 10 µM, first compound 0.1 µM
[32] = second compound 10 µM, first compound 0.316 µM
[33] = second compound 10 µM, first compound 1 µM
[34] = second compound 10 µM, first compound 3.16 µM
[35] = second compound 10 µM, first compound 10 µM

IC50 [1]: 0.00509 µM | IC50 [2]: 0.00512 µM | IC50 [3]: 0.00496 µM | IC50 [4]: 0.0043 µM | IC50 [5]: 0.00345 µM
Structure (SMILES): CC(C)CC(NC(=O)C(Cc1ccccc1)NC(=O)c1cnccn1)B(O)O (centres undefined) + Cc1ccccc1N=Nc1ccc(NC(=O)c2ccnn2C)c(C)c1
viability, T/C (second compound 0.1 µM, first compound 0.000949 µM): 116% | viability, T/C (second compound 0.1 µM, first compound 0.003 µM): 90.2% | viability, T/C (second compound 0.1 µM, first compound 0.00949 µM): 2.67% | viability, T/C (second compound 0.1 µM, first compound 0.03 µM): 0.15% | viability, T/C (second compound 0.1 µM, first compound 0.0949 µM): 0.06% | viability, T/C (second compound 0.1 µM, first compound 0.3 µM): 0.19% | viability, T/C (second compound 0.316 µM, first compound 0.000949 µM): 92.6% | viability, T/C (second compound 0.316 µM, first compound 0.003 µM): 91.1% | viability, T/C (second compound 0.316 µM, first compound 0.00949 µM): 2.6% | viability, T/C (second compound 0.316 µM, first compound 0.03 µM): 0.07% | viability, T/C (second compound 0.316 µM, first compound 0.0949 µM): 0.07% | viability, T/C (second compound 0.316 µM, first compound 0.3 µM): 0.15% | viability, T/C (second compound 1 µM, first compound 0.000949 µM): 83% | viability, T/C (second compound 1 µM, first compound 0.003 µM): 89.7% | viability, T/C (second compound 1 µM, first compound 0.00949 µM): 3.18% | viability, T/C (second compound 1 µM, first compound 0.03 µM): 0.12% | viability, T/C (second compound 1 µM, first compound 0.0949 µM): 0.08% | viability, T/C (second compound 1 µM, first compound 0.3 µM): 0.18% | viability, T/C (second compound 3.16 µM, first compound 0.000949 µM): 85% | viability, T/C (second compound 3.16 µM, first compound 0.003 µM): 71.6% | viability, T/C (second compound 3.16 µM, first compound 0.00949 µM): 2.5% | viability, T/C (second compound 3.16 µM, first compound 0.03 µM): 0.06% | viability, T/C (second compound 3.16 µM, first compound 0.0949 µM): 0.09% | viability, T/C (second compound 3.16 µM, first compound 0.3 µM): 0.2% | viability, T/C (second compound 10 µM, first compound 0.000949 µM): 50.5% | viability, T/C (second compound 10 µM, first compound 0.003 µM): 62.5% | viability, T/C (second compound 10 µM, first compound 0.00949 µM): 2.63% | viability, T/C (second compound 10 µM, first compound 0.03 µM): 0.39% | viability, T/C (second compound 10 µM, first compound 0.0949 µM): 0.18% | viability, T/C (second compound 10 µM, first compound 0.3 µM): 0.31%

IC50 [1]: > 10 µM | IC50 [2]: > 10 µM | IC50 [3]: > 10 µM | IC50 [4]: > 10 µM | IC50 [5]: < 0.0316 µM
Structure (SMILES): CC1(C)CCC(CN2CCN(c3ccc(C(=O)NS(=O)(=O)c4ccc(NCC5CCOCC5)c([N+](=O)[O-])c4)c(Oc4cnc5[nH]ccc5c4)c3)CC2)=C(c2ccc(Cl)cc2)C1 + Cc1cncc(-c2nc(NCCc3c[nH]c4ccccc34)c3ncn(C(C)C)c3n2)c1
viability, T/C [6]: 94.9% | viability, T/C [7]: 77.2% | viability, T/C [8]: 81.5% | viability, T/C [9]: 77% | viability, T/C [10]: 64.9% | viability, T/C [11]: 68.3% | viability, T/C [12]: 86.6% | viability, T/C [13]: 77.9% | viability, T/C [14]: 71.3% | viability, T/C [15]: 73.3% | viability, T/C [16]: 66.1% | viability, T/C [17]: 78.1% | viability, T/C [18]: 79.4% | viability, T/C [19]: 80.9% | viability, T/C [20]: 81.6% | viability, T/C [21]: 71.8% | viability, T/C [22]: 63.9% | viability, T/C [23]: 60.3% | viability, T/C [24]: 70.6% | viability, T/C [25]: 66.7% | viability, T/C [26]: 66.1% | viability, T/C [27]: 53.9% | viability, T/C [28]: 64.1% | viability, T/C [29]: 70.5% | viability, T/C [30]: 49.9% | viability, T/C [31]: 43.3% | viability, T/C [32]: 45.2% | viability, T/C [33]: 39.8% | viability, T/C [34]: 42% | viability, T/C [35]: 41.9%

IC50 [1]: 0.0928 µM | IC50 [2]: < 0.0316 µM | IC50 [3]: 0.166 µM | IC50 [4]: < 0.0316 µM | IC50 [5]: < 0.0316 µM
Structure (SMILES): COc1cccc2c1C(=O)c1c(O)c3c(c(O)c1C2=O)CC(O)(C(=O)CO)CC3OC1CC(N)C(O)C(C)O1 (centres undefined) + Cc1ccccc1N=Nc1ccc(NC(=O)c2ccnn2C)c(C)c1
viability, T/C [6]: 59.7% | viability, T/C [7]: 44.6% | viability, T/C [8]: 37.9% | viability, T/C [9]: 18.2% | viability, T/C [10]: 1.96% | viability, T/C [11]: 4.55% | viability, T/C [12]: 50% | viability, T/C [13]: 48.6% | viability, T/C [14]: 38.2% | viability, T/C [15]: 24.2% | viability, T/C [16]: 2.31% | viability, T/C [17]: 4.21% | viability, T/C [18]: 58.8% | viability, T/C [19]: 51.5% | viability, T/C [20]: 44.6% | viability, T/C [21]: 16.5% | viability, T/C [22]: 2.36% | viability, T/C [23]: 4.45% | viability, T/C [24]: 50.1% | viability, T/C [25]: 48.2% | viability, T/C [26]: 41.1% | viability, T/C [27]: 16.2% | viability, T/C [28]: 3.35% | viability, T/C [29]: 5.99% | viability, T/C [30]: 40.9% | viability, T/C [31]: 41.2% | viability, T/C [32]: 35.9% | viability, T/C [33]: 14.4% | viability, T/C [34]: 5.03% | viability, T/C [35]: 4.31%

IC50 (curve of compound): > 10 µM
Structure (SMILES): CC(C)c1c(-c2ccccc2)nc2c(C#N)c[nH]n2c1=O
viability, T/C (compound 0.0316 µM): 105% (2×) and 130% | viability, T/C (compound 0.1 µM): 93.4% and 104% and 101% | viability, T/C (compound 0.316 µM): 90% and 98.5% and 101% | viability, T/C (compound 1 µM): 88.2% and 103% and 97.3% | viability, T/C (compound 3.16 µM): 100% and 82.5% and 90.3% | viability, T/C (compound 10 µM): 78% and 92% and 91.9%

IC50 [1]: > 10 µM | IC50 [2]: > 10 µM | IC50 [3]: > 10 µM | IC50 [4]: > 10 µM | IC50 [5]: > 10 µM
Structure (SMILES): O=C(c1cc(Cc2n[nH]c(=O)c3ccccc23)ccc1F)N1CCN(C(=O)C2CC2)CC1 + Cc1ccccc1N=Nc1ccc(NC(=O)c2ccnn2C)c(C)c1
viability, T/C [6]: 94% | viability, T/C [7]: 83.4% | viability, T/C [8]: 93.9% | viability, T/C [9]: 86.4% | viability, T/C [10]: 104% | viability, T/C [11]: 69.4% | viability, T/C [12]: 87.4% | viability, T/C [13]: 84.5% | viability, T/C [14]: 97.4% | viability, T/C [15]: 71.2% | viability, T/C [16]: 72.8% | viability, T/C [17]: 59.1% | viability, T/C [18]: 94.2% | viability, T/C [19]: 97.8% | viability, T/C [20]: 68.8% | viability, T/C [21]: 78.3% | viability, T/C [22]: 81.2% | viability, T/C [23]: 69.1% | viability, T/C [24]: 67.6% | viability, T/C [25]: 72.1% | viability, T/C [26]: 65.7% | viability, T/C [27]: 74% | viability, T/C [28]: 60.9% | viability, T/C [29]: 57.3% | viability, T/C [30]: 46.2% | viability, T/C [31]: 50.3% | viability, T/C [32]: 56.3% | viability, T/C [33]: 58.6% | viability, T/C [34]: 51.2% | viability, T/C [35]: 47.5%

IC50 (curve of compound): 4.4 µM and 2.57 µM and 1.91 µM
Structure (SMILES): CC1COCCN1c1cc(C2(S(C)(=N)=O)CC2)nc(-c2ccnc3[nH]ccc23)n1 (centres undefined)
viability, T/C (compound 0.0316 µM): 78.3% and 98.6% and 99.5% | viability, T/C (compound 0.1 µM): 102% and 101% and 88.4% | viability, T/C (compound 0.316 µM): 83.1% and 114% and 76.1% | viability, T/C (compound 1 µM): 96.3% and 75.8% and 66.2% | viability, T/C (compound 3.16 µM): 60.8% and 47.8% and 37.9% | viability, T/C (compound 10 µM): 23.1% and 30.4% and 20.2%

IC50 [1]: < 0.0316 µM | IC50 [2]: < 0.0316 µM | IC50 [3]: < 0.0316 µM | IC50 [4]: < 0.0316 µM | IC50 [5]: < 0.0316 µM
Structure (SMILES): Nc1ccn(C2OC(CO)C(O)C2(F)F)c(=O)n1 (centres undefined) + Cc1cncc(-c2nc(NCCc3c[nH]c4ccccc34)c3ncn(C(C)C)c3n2)c1
viability, T/C [6]: 28.4% | viability, T/C [7]: 28.2% | viability, T/C [8]: 25.5% | viability, T/C [9]: 25.2% | viability, T/C [10]: 27.6% | viability, T/C [11]: 20.8% | viability, T/C [12]: 30.6% | viability, T/C [13]: 28.5% | viability, T/C [14]: 25.9% | viability, T/C [15]: 25.6% | viability, T/C [16]: 22.7% | viability, T/C [17]: 21.5% | viability, T/C [18]: 29.2% | viability, T/C [19]: 31.7% | viability, T/C [20]: 27.9% | viability, T/C [21]: 26.4% | viability, T/C [22]: 24.3% | viability, T/C [23]: 20.9% | viability, T/C [24]: 32.8% | viability, T/C [25]: 27.1% | viability, T/C [26]: 28.5% | viability, T/C [27]: 27% | viability, T/C [28]: 26.8% | viability, T/C [29]: 21.6% | viability, T/C [30]: 36.6% | viability, T/C [31]: 23.7% | viability, T/C [32]: 28.9% | viability, T/C [33]: 27.3% | viability, T/C [34]: 30.8% | viability, T/C [35]: 23.1%
